The results in this text go back to US20170119020A1, “METHOD OF FEEDING AN ANIMAL” (CARGILL, INCORPORATED, priority 2014, published 2017).

Marks after values point to notes of the source that are not given here.

In one assay the test system is sows and piglets. As to the kind of experiment: Total antioxidant status (TAS) in serum of sows and piglets (Example 10). The format is in vivo, pig. The settings on record: for Total antioxidant status (TAS) in serum of piglets: piglets at 21 days. An excerpt: The performance following criteria were monitored during the trial: (i) Sows response criteria (actual parity, farrowing rate, culled sows—number and reasons, wean-to-mating interval, farrowing rate in the next cycle); (ii) litter response criteria (number of piglets, total, alive, stillborn, mummies; weight of piglets and litters; survival). The following biochemical (blood) criteria were monitored during the trial for the sows (mating, farrowing and weaning), piglets 21st day: (i) glutathione peroxidase (GPx) activity; (ii) superoxide dismutase (SOD) activity; (iii) total antioxidant status (TAS); (iv) vitamin E content; (v) vitamin A content.
To determine the oxidative status, the blood samples were collected from sows and piglets into tubes with lithium anticoagulant—received whole blood for analysis. At the same time blood samples were taken for blood clot. They were centrifuged (1500 rpm, 15 Temp. 4° C.) and obtained serum was pipetted into separate tubes.
In studies of oxidative status of sows and piglets were used suitable to each of the indicators, the reagent kits from Sigma-Aldrich. Determination was made in accordance with the descriptions of the rules and procedures specified by the manufacturer.
The content of the TAS (total antioxidant status) were determined using the Antioxidant assay kit (Cat. No CS0790), the activity of SOD (superoxide dismutase) was determined using SOD determination kit 19160, the activity of GPx (glutathione Peroxide assai Cellular Activity Kit) Cat. No CGP1. The content of vitamins A and E by McMurray and Blanchflower 1979 (Journal of Chromatography 178, 525-531.). TAS
Serum samples (10 ul) in duplicate were incubated at room temperature for 5 minutes with the working solution of ABTS (2,2-azino-bis (3-ethylbenzthiazoline-6-sulfonic acid) (150 pl) and the solution with myoglobin (20 pl). Simultaneously the calibration curve was performed based on serial dilutions of Trolox equivalent in the range of 0.015 to 0.42 mM (mmol).
The formed a ferryl radical from myoglobin and hydrogen peroxide causes oxidation of ABTS and production of radical cation ABTS*. The resulting chromogen has a blue-green color. In the presence of antioxidants the radical cation is suppressed to an extent dependent on the activity of the antioxidant and the color intensity is decreased proportionally. The color was measured with a spectrophotometer at a wavelength of 405 nm.

Assay [1] concerns livers of Ross 308 chicks. As to the kind of experiment: Chick liver SOD and GSSG analysis, OXISELECT kits (Example 5). The format is in vivo, chicken. The settings on record: breeder diet. As for the experimental part:
Group egg weights were recorded at E0. At E7 and E18, all eggs were candled and empty eggs or eggs containing dead embryos were removed (early dead E0-E7, mid dead E8-E18). At E18 eggs were transferred to the hatching baskets after candling. At hatch (E21) the number of dead chickens, late dead embryos (E19-E21) and pipped eggs were recorded. The number of hatched chickens was recorded per replicate, as well as average chick weight. Hatchability was calculated as percentage of total eggs set. Sex was determined by feather sexing, female chickens were euthanized by CO2 and disposed according to local regulations. Per experimental unit, five male chickens were selected for the grow-out period and allocated to broiler grower pens. Only chickens with an average body weight, completely dry, showing active movement and with a good navel score were selected. After this selection one male chicken per experimental unit was selected for dissection. Sample chickens were individually weighed and killed by cervical dislocation to measure remaining yolk-sac weights, yolk-free body mass (“YFBM”), liver weight, chick length, and shank length of both shanks. The livers were immediately placed on dry ice and after dissection stored at −20° C. for further analysis (“SOD and GSSG”). Relative asymmetry was calculated according to the following formula: […]
Furthermore, no treatment effects were found on several chick quality parameters (YFBM, chick length, and relative asymmetry). OXISELECT Superoxide Dismutase Activity Assay (“SOD”) and OXISELECT Total Glutathione (GSSG/GSH) Assay (“GSSG”) kits, available commercially from Cell Biolabs, Inc., San Diego, Calif., USA, were used to analyze chick livers.

For `Cc1c(C)c2c(c(C)c1O)CCC(C)(CCCC(C)CCCC(C)CCCC(C)C)O2` (racemic) [Vitamin E, DL-α-tocopherol], the “Total antioxidant status (TAS) in serum of sows” value with sows and piglets (Breeding, Group 2: vitamin E 50/75 mg/kg diet) was 1.26 mmol/L; with sows and piglets (Breeding, Group 3: vitamin E 100/150 mg/kg diet) it was 1.29 mmol/L; in the assay on sows and piglets (Farrowing, Group 2: vitamin E 50/75 mg/kg diet), 1.18^a mmol/L; in the assay with sows and piglets (Farrowing, Group 3: vitamin E 100/150 mg/kg diet) it was 1.19^a mmol/L; with sows and piglets (Weaning, Group 2: vitamin E 50/75 mg/kg diet) it was 1.18^B mmol/L; in the assay on sows and piglets (Weaning, Group 3: vitamin E 100/150 mg/kg diet), 1.20^Ba mmol/L. The “Total antioxidant status (TAS) in serum of piglets” value in the assay with sows and piglets (Group 2: vitamin E 50/75 mg/kg sow diet) is listed as 1.16^B mmol/L; in the assay on sows and piglets (Group 3: vitamin E 100/150 mg/kg sow diet) it was 1.18^A mmol/L. Also, the results for the GSSG in assay [1] (vitamin E equivalence 80 ppm) and in assay [1] (vitamin E equivalence 160 ppm) were 4.27 µM and 4.48 µM, respectively. Moreover, the SOD units in assay [1] (vitamin E equivalence 80 ppm) is listed as 0.776 units; in assay [1] (vitamin E equivalence 160 ppm) it was 0.777 units.
